In patent US9594042B2, “Electrochemical determination of factor XA inhibitors” (Roche Diagnostics Operations Inc., priority 2006, dated 2017):

Target: factor Xa (Homo sapiens, UniProt P00742)
Assay: premature factor Xa-induced degradation of the thrombin substrate during common dwelling in liquid reagent
Format: biochemical
Conditions: common dwelling time of 2 h with factor Xa
Description: The coagulation factor Xa is a serine protease which naturally recognizes the amino sequence -Ile-Glu-Gly-Arg- of prothrombin and by cleaving this sequence, activates the natural substrate prothrombin to form thrombin. In addition to this physiological substrate, factor Xa is also able to enzymatically cleave other peptides having this or other cleavage sequences. Thus, peptidic thrombin substrates and in particular the widely used Chromozym TH can also be cleaved by factor Xa. This low substrate specificity of factor Xa can result in problems in the methods according to the invention especially when such a thrombin substrate which can also be cleaved by factor Xa is used as a detection reagent and already comes into contact with factor Xa before adding the sample and can be converted thereby. As a result a portion of the thrombin substrate can already be converted such that this is no longer available for the thrombin-mediated detection reaction and thus the result of the measurement is affected. Such undesired side reactions can occur especially when factor Xa and the thrombin substrate are in contact over a long period such as would be for example the case if these two substances were to be introduced simultaneously into a liquid detection reagent. […]

Sequence of factor Xa (P00742 235-488 limits assumed): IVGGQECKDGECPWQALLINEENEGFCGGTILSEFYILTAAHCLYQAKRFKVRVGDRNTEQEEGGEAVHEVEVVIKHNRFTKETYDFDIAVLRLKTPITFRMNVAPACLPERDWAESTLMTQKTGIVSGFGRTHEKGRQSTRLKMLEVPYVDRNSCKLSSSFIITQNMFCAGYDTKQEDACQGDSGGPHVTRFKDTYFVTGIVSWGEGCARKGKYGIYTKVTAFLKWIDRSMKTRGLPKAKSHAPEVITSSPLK
Sequence of factor Xa (P00742 41-179 partner limits assumed): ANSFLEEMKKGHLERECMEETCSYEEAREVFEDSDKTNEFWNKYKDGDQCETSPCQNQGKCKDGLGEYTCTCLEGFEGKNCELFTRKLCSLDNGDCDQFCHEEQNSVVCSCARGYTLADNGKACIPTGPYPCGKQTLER

tosyl-glycy-prolyl-arginine-4-nitroanilide acetate [reduced Chromozym TH]
portion of the reduced Chromozym TH cleaved due alone to the action of factor Xa: about 25%
